Laboratory results published in patent US20120178147A1, “MICROBIAL CULTURES AND METHODS FOR ANAEROBIC BIOREMEDIATION” (priority 2009, published 2012).

Assays:
DehaloR̂2 cultures = assay: TCC and TCS exposure: TCE reductive dechlorination by DehaloR̂2 culture; format: cell-based; conditions: for TCE completely dechlorinated into ethene in the 22-day period in DehaloR̂2: 1.5 μM TCC (32 μmol TCE) or 35 μM TCS
Description: Cultures. Two cultures were used in this study: 1) Bio-Dechlor INOCULUM, which was obtained from Dr. Frank Loffler's laboratory at Georgia Tech; 2) DehaloR̂2 culture, developed from a sediment microcosm from the Chesapeake Bay “sediment core-D” with three-times continuous transfers described in Example 1.
TCC and TCS Exposure. For the TCC and TCS test, 1 ml ATCC mixed vitamin solution (Catalog No. MD-VS), 0.25 ml 20 mg/L vitamin B12 solution and 1 ml 500 mM lactate solution were filtered with a 0.2 μm sterile filter and added to 92.5 ml sterile anaerobic media in 160 ml serum bottles, and then 5 ml of culture was transferred into this fresh media. Lactate served as electron donor and carbon source. Fifty μl TCE stock solutions ([…] in methanol) were injected into the media with 500-μl Hamilton air-tight syringe (Reno, Nev.), and the final TCE concentration was 35 μmol per serum bottle. Ten μl TCC or TCS stock solutions in methanol or pure methanol was injected with 10 μl Hamilton air-tight syringe (Reno, Nev.) into the serum bottle. Three concentration levels of TCC or TCS stock solutions were made and listed in Table 8 to make the three final concentration levels of TCC or TCS. The middle concentration level of TCC and TCS in cultures was set according to the solubility of TCC and TCS at 20° C. The highest concentration of TCC and TCS is 10 times the solubility of TCC and TCS at 20° C., and the lowest concentration of TCC and TCS is 10% the solubility of TCC and TCS at 20° C.
The total aqueous volume in 160-ml serum bottle was 100 ml. Four BDI and four DehaloR̂2 cultures were generated for each concentration of TCC or TCS, and three of them were used for TCE dechlorination analysis and the other one was used for DNA extractions and molecular analysis. The error bars in the figures are the standard deviations for three independent cultures under the same conditions.
The TCC and TCS tests on DehaloR̂2 culture were only dosed with the highest and middle concentrations of TCC and TCS, which are 1.5 μM TCC, 0.15 μM TCC, 35 μM TCS and 3.5 μM TCS, respectively.
All cultures were stored in the dark and incubated at 30° C.
Analytical Methods. The concentrations of TCE and their reductive-dechlorinating byproducts, 1,1-DCE, cis-DCE, trans-DCE, VC, and ethene were quantified by gas chromatography with a flame ionization detector (GC-FID).
200 μl headspace gas samples were withdrawn from 160 ml serum bottle with 500 μl gas-tight syringes (Hamilton Company, Reno, Nev.) and analyzed by a Shimadzu GC-2010 (Columbia, Md.) with an Rt™-QSPLOT capillary column (30 m×0.32 mm×10 μm, Restek, Bellefonte, Pa.) and a flame ionization detector (FID). The initial oven temperature was 110° C. and was held constant for 5 min. Then the temperature was raised with a gradient of 10° C./min to 150° C., a second gradient at 20° C./min to 200° C., and a third gradient of 5° C./min to 220° C. At the end of this gradient, the oven temperature was held constant at 220° C. for 5 min. The temperature of FID and injector were 240° C. Ultra high purity helium was the carrier gas for the GC. Ultra high purity hydrogen and zero grade air were used for the FID.
Calibration curves for chlorinated compounds were determined based on the known mass of PCE, TCE, 1,1-DCE, cis-DCE and trans-DCE added to 160 ml serum bottles containing 100 ml of distilled-deionized water and equilibrated at 25° C. overnight. The contents were then analyzed using the Shimadzu GC-FID. Different volumes of 100 ppm and 1000 ppm VC and ethene gas were injected directly into GC using the 500 μl airtight syringe to make their calibration curves. The aqueous concentrations of PCE, TCE and their reaction products were calculated by using reported Henry's constants on the EPA website (Washington and Weaver, 2006)

[1] = at 25° C., pH 7; cited from earlier work
[2] = highest level: 1.5 μM TCC or 35 μM TCS
[3] = middle level: 0.15 μM TCC or 3.5 μM TCS

## Oc1cc(Cl)ccc1Oc1ccc(Cl)cc1Cl [TCS, 5-chloro-2-[2,4-dichloro-phenoxy]-phenol]
DehaloR̂2 cultures
  TCE completely dechlorinated into ethene in the 22-day period in DehaloR̂2: no ethene was produced
DehaloR̂2 cultures; 3.5 μM TCS
  time for TCE reductive dechlorination to cis-DCE in DehaloR̂2: about 4 days
DehaloR̂2 cultures; 3.5 μM TCS, 34 μmol TCE
  TCE completely dechlorinated into ethene at the 18th day in DehaloR̂2: 79%
DehaloR̂2 cultures; 35 μM TCS
  TCE transformed into VC within 22 days in DehaloR̂2: 1%
DehaloR̂2 cultures; [2]
  Maximum formation rate VC in DehaloR̂2 (SCD): 0.11 μmol vial^−1 day^−1
  Maximum formation rate cis-DCE in DehaloR̂2 (SCD): 5.59 μmol vial^−1 day^−1
  Maximum utilization rate TCE in DehaloR̂2 (SCD): 5.90 μmol vial^−1 day^−1
  effect on TCE reductive dechlorination in DehaloR̂2 cultures: significantly inhibited TCE reductive dechlorination
DehaloR̂2 cultures; [3]
  Maximum formation rate Ethene in DehaloR̂2 (SCD): 3.11 μmol vial^−1 day^−1
  Maximum formation rate VC in DehaloR̂2 (SCD): 8.99 μmol vial^−1 day^−1
  Maximum formation rate cis-DCE in DehaloR̂2 (SCD): 8.79 μmol vial^−1 day^−1
  Maximum utilization rate TCE in DehaloR̂2 (SCD): 13.47 μmol vial^−1 day^−1
  Maximum utilization rate VC in DehaloR̂2 (SCD): 1.96 μmol vial^−1 day^−1
  Maximum utilization rate cis-DCE in DehaloR̂2 (SCD): 9.10 μmol vial^−1 day^−1
  effect on TCE reductive dechlorination in DehaloR̂2 cultures: slowed down the TCE reductive dechlorination process
[1]
  Partition Coefficient: 4.8 Log Pow

## O=C(Nc1ccc(Cl)cc1)Nc1ccc(Cl)c(Cl)c1 [TCC, 3-(4-chlorophenyl)-1-(3,4-dichlorphenyl) urea]
DehaloR̂2 cultures; 0.15 μM TCC
  time for complete TCE reductive dechlorination in DehaloR̂2: approximately 22 days
  time for reductive dechlorination of 80% of 33 μmol TCE into ethene in DehaloR̂2: 11 days
DehaloR̂2 cultures; 1.5 μM TCC
  time for reductive dechlorination of TCE to cis-DCE in DehaloR̂2: about 4 days
DehaloR̂2 cultures
  TCE completely dechlorinated into ethene in the 22-day period in DehaloR̂2: About 46%
DehaloR̂2 cultures; highest level: 1.5 μM TCC
  Maximum formation rate Ethene in DehaloR̂2 (SCD): 1.08 μmol vial^−1 day^−1
  Maximum utilization rate VC in DehaloR̂2 (SCD): 1.48 μmol vial^−1 day^−1
  Maximum utilization rate cis-DCE in DehaloR̂2 (SCD): 9.55 μmol vial^−1 day^−1
DehaloR̂2 cultures; [2]
  Maximum formation rate VC in DehaloR̂2 (SCD): 8.12 μmol vial^−1 day^−1
  Maximum formation rate cis-DCE in DehaloR̂2 (SCD): 12.83 μmol vial^−1 day^−1
  Maximum utilization rate TCE in DehaloR̂2 (SCD): 9.54 μmol vial^−1 day^−1
  effect on TCE reductive dechlorination in DehaloR̂2 cultures: significantly inhibited TCE reductive dechlorination
DehaloR̂2 cultures; [3]
  Maximum formation rate Ethene in DehaloR̂2 (SCD): 8.54 μmol vial^−1 day^−1
  Maximum formation rate VC in DehaloR̂2 (SCD): 6.72 μmol vial^−1 day^−1
  Maximum formation rate cis-DCE in DehaloR̂2 (SCD): 23.87 μmol vial^−1 day^−1
  Maximum utilization rate TCE in DehaloR̂2 (SCD): 20.45 μmol vial^−1 day^−1
  Maximum utilization rate VC in DehaloR̂2 (SCD): 6.01 μmol vial^−1 day^−1
  Maximum utilization rate cis-DCE in DehaloR̂2 (SCD): 6.40 μmol vial^−1 day^−1
  effect on TCE reductive dechlorination in DehaloR̂2 cultures: slowed down the TCE reductive dechlorination process
[1]
  Partition Coefficient: 4.9 Log Pow
